Our source for the TGI values is PubChem BioAssay (NCI).

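The compound was tested at five concentrations on cells cultured in 96-well plates, with a 48-hour exposure period. TGI marks complete inhibition of growth.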

In the first test the test system is SN12C renal. Put plainly: DTP human tumour cell line panel, 48 h.
As a reminder, the TGI is the concentration giving total growth inhibition. The low end stands for more potent growth arrest, the high end for less potent growth arrest. Turning to `O=C1NC(=S)NC(=O)C1C(c1ccccc1[N+](=O)[O-])C1C(=O)NC(=S)NC1=O`, the TGI was greater than 100 µM.
On the same count and under the same terms, the value for `CC(C)c1c(P(=O)(c2ccccc2)c2ccccc2)n(C)c2ccccc12` was greater than 100 µM.
Still for that read-out and setting: the value for `O=C(O)CNC(=O)c1ccc([As](=O)(O)O)cc1` was greater than 100 µM; that for `CCN(CC)CCCn1c(=O)c2cccnc2n2c3c(=O)n(C)c(=O)n(C)c3nc12` was greater than 100 µM.

A further test deals with SF-295 CNS. Put plainly: DTP human tumour cell line panel, 48 h.
The molecule `O=C1NC(=S)NC(=O)C1C(c1ccccc1[N+](=O)[O-])C1C(=O)NC(=S)NC1=O` registered a TGI greater than 100 µM.
On the same count and under the same terms, as for `CC(C)c1c(P(=O)(c2ccccc2)c2ccccc2)n(C)c2ccccc12`, the figure is greater than 100 µM; as for `O=C(O)CNC(=O)c1ccc([As](=O)(O)O)cc1`, greater than 100 µM; as for `CCN(CC)CCCn1c(=O)c2cccnc2n2c3c(=O)n(C)c(=O)n(C)c3nc12`, greater than 100 µM.

A further test has as its system BT-549 breast. Put plainly: DTP human tumour cell line panel, 48 h.
Molecule `O=C1NC(=S)NC(=O)C1C(c1ccccc1[N+](=O)[O-])C1C(=O)NC(=S)NC1=O` returned a TGI greater than 100 µM.
The same measure, in the same setting: the value for `CC(C)c1c(P(=O)(c2ccccc2)c2ccccc2)n(C)c2ccccc12` was greater than 100 µM; that for `O=C(O)CNC(=O)c1ccc([As](=O)(O)O)cc1` was greater than 100 µM.
On the same count and under the same terms, the value for `CCN(CC)CCCn1c(=O)c2cccnc2n2c3c(=O)n(C)c(=O)n(C)c3nc12` was greater than 100 µM.

A further test concerns UO-31 renal. Put plainly: DTP human tumour cell line panel, 48 h.
Regarding `O=C1NC(=S)NC(=O)C1C(c1ccccc1[N+](=O)[O-])C1C(=O)NC(=S)NC1=O`, the TGI is greater than 100 µM.
The same measure, in the same setting: the value for `CC(C)c1c(P(=O)(c2ccccc2)c2ccccc2)n(C)c2ccccc12` was greater than 100 µM; that for `O=C(O)CNC(=O)c1ccc([As](=O)(O)O)cc1` was greater than 100 µM; that for `CCN(CC)CCCn1c(=O)c2cccnc2n2c3c(=O)n(C)c(=O)n(C)c3nc12` was greater than 100 µM.

The next test concerns SF-268 CNS. Put plainly: DTP human tumour cell line panel, 48 h.
For the molecule `O=C1NC(=S)NC(=O)C1C(c1ccccc1[N+](=O)[O-])C1C(=O)NC(=S)NC1=O`, the TGI was greater than 100 µM.
Molecule `CC(C)c1c(P(=O)(c2ccccc2)c2ccccc2)n(C)c2ccccc12` yielded a TGI greater than 100 µM.
On the same count and under the same terms, as for `O=C(O)CNC(=O)c1ccc([As](=O)(O)O)cc1`, the figure is greater than 100 µM; as for `CCN(CC)CCCn1c(=O)c2cccnc2n2c3c(=O)n(C)c(=O)n(C)c3nc12`, greater than 100 µM.

In a further test the test system is MOLT-4 leukemia. Put plainly: DTP human tumour cell line panel, 48 h.
For `O=C1NC(=S)NC(=O)C1C(c1ccccc1[N+](=O)[O-])C1C(=O)NC(=S)NC1=O`, the TGI is greater than 100 µM.
On the same count and under the same terms, as for `CC(C)c1c(P(=O)(c2ccccc2)c2ccccc2)n(C)c2ccccc12`, the figure is greater than 100 µM; as for `O=C(O)CNC(=O)c1ccc([As](=O)(O)O)cc1`, greater than 100 µM.
Still for that read-out and setting: the value for `CCN(CC)CCCn1c(=O)c2cccnc2n2c3c(=O)n(C)c(=O)n(C)c3nc12` was greater than 100 µM.

Another test deals with TK-10 renal. The experiment in a line: DTP human tumour cell line panel, 48 h.
In turn, `O=C1NC(=S)NC(=O)C1C(c1ccccc1[N+](=O)[O-])C1C(=O)NC(=S)NC1=O` gave a TGI greater than 100 µM.
On to `CC(C)c1c(P(=O)(c2ccccc2)c2ccccc2)n(C)c2ccccc12`, for which the TGI was greater than 100 µM.
On to `O=C(O)CNC(=O)c1ccc([As](=O)(O)O)cc1`, for which the TGI is greater than 100 µM.
Same read-out and setting: as for `CCN(CC)CCCn1c(=O)c2cccnc2n2c3c(=O)n(C)c(=O)n(C)c3nc12`, the figure is greater than 100 µM.

The next test relates to SNB-75 CNS. Put plainly: DTP human tumour cell line panel, 48 h.
In turn, `CC(C)c1c(P(=O)(c2ccccc2)c2ccccc2)n(C)c2ccccc12` displayed a TGI greater than 100 µM.
Same read-out and setting: the value for `O=C(O)CNC(=O)c1ccc([As](=O)(O)O)cc1` was greater than 100 µM; that for `CCN(CC)CCCn1c(=O)c2cccnc2n2c3c(=O)n(C)c(=O)n(C)c3nc12` was greater than 100 µM.

The next test concerns OVCAR-5 ovarian. Put plainly: DTP human tumour cell line panel, 48 h.
Regarding `O=C1NC(=S)NC(=O)C1C(c1ccccc1[N+](=O)[O-])C1C(=O)NC(=S)NC1=O`, the concentration for total growth inhibition (TGI) is greater than 100 µM.
Still for that read-out and setting: as for `CC(C)c1c(P(=O)(c2ccccc2)c2ccccc2)n(C)c2ccccc12`, the figure is greater than 100 µM; as for `O=C(O)CNC(=O)c1ccc([As](=O)(O)O)cc1`, greater than 100 µM.
In turn, `CCN(CC)CCCn1c(=O)c2cccnc2n2c3c(=O)n(C)c(=O)n(C)c3nc12` returned a TGI greater than 100 µM.

A further test deals with DU-145 prostate. The experiment in a line: DTP human tumour cell line panel, 48 h.
The molecule `O=C1NC(=S)NC(=O)C1C(c1ccccc1[N+](=O)[O-])C1C(=O)NC(=S)NC1=O` returned a TGI greater than 100 µM.
The same measure, in the same setting: the value for `CC(C)c1c(P(=O)(c2ccccc2)c2ccccc2)n(C)c2ccccc12` was greater than 100 µM.
Still for that read-out and setting: the value for `O=C(O)CNC(=O)c1ccc([As](=O)(O)O)cc1` was greater than 100 µM; that for `CCN(CC)CCCn1c(=O)c2cccnc2n2c3c(=O)n(C)c(=O)n(C)c3nc12` was greater than 100 µM.

In a further test the test system is KM12 colon. The experiment in a line: DTP human tumour cell line panel, 48 h.
Turning to `O=C1NC(=S)NC(=O)C1C(c1ccccc1[N+](=O)[O-])C1C(=O)NC(=S)NC1=O`, the TGI is greater than 100 µM.
As to `CC(C)c1c(P(=O)(c2ccccc2)c2ccccc2)n(C)c2ccccc12`, the TGI is greater than 100 µM.
The same measure, in the same setting: the value for `O=C(O)CNC(=O)c1ccc([As](=O)(O)O)cc1` was greater than 100 µM; that for `CCN(CC)CCCn1c(=O)c2cccnc2n2c3c(=O)n(C)c(=O)n(C)c3nc12` was greater than 100 µM.

For another test, the system named is NCI-H460 lung. The experiment in a line: DTP human tumour cell line panel, 48 h.
For `O=C1NC(=S)NC(=O)C1C(c1ccccc1[N+](=O)[O-])C1C(=O)NC(=S)NC1=O`, the total growth inhibition concentration (TGI) is greater than 100 µM.
Same read-out and setting: as for `CC(C)c1c(P(=O)(c2ccccc2)c2ccccc2)n(C)c2ccccc12`, the figure is greater than 100 µM.
On the same count and under the same terms, the value for `O=C(O)CNC(=O)c1ccc([As](=O)(O)O)cc1` was greater than 100 µM.
On the same count and under the same terms, the value for `CCN(CC)CCCn1c(=O)c2cccnc2n2c3c(=O)n(C)c(=O)n(C)c3nc12` was greater than 100 µM.

A further test relates to SW-620 colon. The experiment in a line: DTP human tumour cell line panel, 48 h.
For `O=C1NC(=S)NC(=O)C1C(c1ccccc1[N+](=O)[O-])C1C(=O)NC(=S)NC1=O`, the TGI was greater than 100 µM.
On the same count and under the same terms, as for `CC(C)c1c(P(=O)(c2ccccc2)c2ccccc2)n(C)c2ccccc12`, the figure is greater than 100 µM.
Still for that read-out and setting: as for `O=C(O)CNC(=O)c1ccc([As](=O)(O)O)cc1`, the figure is greater than 100 µM; as for `CCN(CC)CCCn1c(=O)c2cccnc2n2c3c(=O)n(C)c(=O)n(C)c3nc12`, greater than 100 µM.

The next test deals with UACC-257 melanoma. Put plainly: DTP human tumour cell line panel, 48 h.
For the molecule `O=C1NC(=S)NC(=O)C1C(c1ccccc1[N+](=O)[O-])C1C(=O)NC(=S)NC1=O`, the TGI is greater than 100 µM.
Still for that read-out and setting: as for `CC(C)c1c(P(=O)(c2ccccc2)c2ccccc2)n(C)c2ccccc12`, the figure is greater than 100 µM; as for `CCN(CC)CCCn1c(=O)c2cccnc2n2c3c(=O)n(C)c(=O)n(C)c3nc12`, greater than 100 µM.
